Where a name gives a salt, the structure may show the parent alone. Some results are limits rather than exact numbers.

One test has as its system MV-4-11 cells. Kind of test: AML cell viability assay (RealTime-Glo). Conditions: Homo sapiens, MV4-11; IC50 class; MV-4-11 cells, RealTime-Glo after 44 hrs of treatment (TABLE 4); read-out: Cell viability classification. It counts as cell-based.
With `N#CC1(CN[C@H]2CC[C@H](N(CCC3CC3)c3cccc4c3CN(C3CCC(=O)NC3=O)C4=O)CC2)CC1` (some centres unmarked) [Compound 611, 1-({[(1r,4r)-4-[(2-cyclopropylethyl)[2-(2,6-dioxopiperidin-3-yl)-1-oxo-3H-isoindol-4-yl]amino]cyclohexyl]amino}methyl)cyclopropane-1-carbonitrile], the IC50 was less than 100 nM.
On the same count and under the same terms, the same measure for `O=C1CCC(N2Cc3c(cccc3N(CCC3CC3)[C@H]3CC[C@@H](NCC4(F)CC4)CC3)C2=O)C(=O)N1` (some centres unmarked) [Compound 612A, 3-{4-[(2-cyclopropylethyl)[(1s,4s)-4-{[(1-fluorocyclopropyl)methyl]amino}cyclohexyl]amino]-1-oxo-3H-isoindol-2-yl}piperidine-2,6-dione]: 100 to 1000 nM.
As for `O=C1CCC(N2Cc3c(cccc3N(CCC3CC3)[C@H]3CC[C@@H](NCC4(F)CCC4)CC3)C2=O)C(=O)N1` (some centres unmarked) [Compound 613A, 3-{4-[(2-cyclopropylethyl)[(1s,4s)-4-{[(1-fluorocyclobutyl)methyl]amino}cyclohexyl]amino]-1-oxo-3H-isoindol-2-yl}piperidine-2,6-dione], the IC50 fell in the range of 100 to 1000 nM.
In the case of `O=C1CCC(N2Cc3c(cccc3N(CCC3CC3)[C@H]3CC[C@H](NCC4(C(F)(F)F)CCC4)CC3)C2=O)C(=O)N1` (some centres unmarked) [Compound 614, 3-{4-[(2-cyclopropylethyl)[(1r,4r)-4-({[1-(trifluoromethyl)cyclobutyl]methyl}amino)cyclohexyl]amino]-1-oxo-3H-isoindol-2-yl}piperidine-2,6-dione; trifluoro acetate], the IC50 fell in the range of 100 to 1000 nM.
Same read-out and setting: the same measure for `O=C1CCC(N2Cc3c(cccc3N(CCC3CC3)[C@H]3CC[C@@H](NCC4(C(F)(F)F)CCC4)CC3)C2=O)C(=O)N1` (some centres unmarked) [Compound 614A, 3-{4-[(2-cyclopropylethyl)[(1s,4s)-4-({[1-(trifluoromethyl)cyclobutyl]methyl}amino)cyclohexyl]amino]-1-oxo-3H-isoindol-2-yl}piperidine-2,6-dione; trifluoro acetate]: greater than 1000 nM; for `O=C1CCC(N2Cc3c(cccc3N(CCC3CC3)[C@H]3CC[C@@H](NCC4(F)COC4)CC3)C2=O)C(=O)N1` (some centres unmarked) [Compound 616A, 3-{4-[(2-cyclopropylethyl)[(1s,4s)-4-{[(3-fluorooxetan-3-yl)methyl]amino}cyclohexyl]amino]-1-oxo-3H-isoindol-2-yl}piperidine-2,6-dione; trifluoroacetate]: 100 to 1000 nM; for `O=C1CCC(N2Cc3c(ccc(F)c3N(CCC3CC3)[C@H]3CC[C@H](NCC4(C(F)(F)F)CC4)CC3)C2=O)C(=O)N1` (some centres unmarked) [Compound 619, 3-(4-((2-cyclopropylethyl)(4-(((1-(trifluoromethyl)cyclopropyl)methyl)amino)cyclohexyl)amino)-5-fluoro-1-oxoisoindolin-2-yl)piperidine-2,6-dione]: 100 to 1000 nM.
Same read-out and setting: the same measure for `O=C1CCC(N2Cc3c(N(CCC4CC4)[C@H]4CC[C@H](NCC5(C(F)(F)F)CC5)CC4)ccc(F)c3C2=O)C(=O)N1` (some centres unmarked) [Compound 627, 3-{4-[(2-cyclopropylethyl)[(1r,4r)-4-({[1-(trifluoromethyl)cyclopropyl]methyl}amino)cyclohexyl]amino]-7-fluoro-1-oxo-3H-isoindol-2-yl}piperidine-2,6-dione]: greater than 1000 nM; for `O=C1CCC(N2Cc3c(N(CCC4CC4)[C@H]4CC[C@@H](NCC5(C(F)(F)F)CC5)CC4)ccc(F)c3C2=O)C(=O)N1` (some centres unmarked) [Compound 627A, 3-{4-[(2-cyclopropylethyl)[(1s,4s)-4-({[1-(trifluoromethyl)cyclopropyl]methyl}amino)cyclohexyl]amino]-7-fluoro-1-oxo-3H-isoindol-2-yl}piperidine-2,6-dione]: greater than 1000 nM.
Still for that read-out and setting: the same measure for `O=C1CCC(N2Cc3c(cccc3N(CCCCC(F)(F)F)[C@H]3CC[C@H](NCC4(C(F)(F)F)CC4)CC3)C2=O)C(=O)N1` (some centres unmarked) [Compound 628, 3-(1-oxo-4-{[(1r,4r)-4-({[1-(trifluoromethyl)cyclopropyl]methyl}amino)cyclohexyl](5,5,5-trifluoropentyl)amino}-3H-isoindol-2-yl)piperidine-2,6-dione; trifluoroacetate]: 100 to 1000 nM; for `O=C1CCC(N2Cc3c(cccc3N(CCCCC(F)(F)F)[C@H]3CC[C@@H](NCC4(C(F)(F)F)CC4)CC3)C2=O)C(=O)N1` (some centres unmarked) [Compound 628A, 3-(1-oxo-4-{[(1s,4s)-4-({[1-(trifluoromethyl)cyclopropyl]methyl}amino)cyclohexyl](5,5,5-trifluoropentyl)amino}-3H-isoindol-2-yl)piperidine-2,6-dione; trifluoroacetate]: greater than 1000 nM.
On to `O=C1CCC(N2Cc3c(cccc3N(CCCCC(F)(F)F)[C@H]3CC[C@@H](NCCC(F)(F)F)CC3)C2=O)C(=O)N1` (some centres unmarked) [Compound 636A, 3-(1-oxo-4-{[(1s,4s)-4-[(3,3,3-trifluoropropyl)amino]cyclohexyl](5,5,5-trifluoropentyl)amino}-3H-isoindol-2-yl)piperidine-2,6-dione; trifluoroacetate], for which the IC50 was greater than 1000 nM.

Staying with this test, now noted: Homo sapiens, MV4-11; IC50 class; MV-4-11 cells, RealTime-Glo after 44 hrs of treatment (TABLE 5); read-out: Cell viability classification.
Turning to `O=C1CCC(N2Cc3c(cccc3N(CCC3CC3)[C@H]3CC[C@H](NCCCC(F)(F)F)CC3)C2=O)C(=O)N1` (some centres unmarked) [Compound 642], the IC50 is less than 100 nM.
Same read-out and setting: under `O=C1CCC(N2Cc3c(cccc3N(CCC3CC3)[C@H]3CC[C@H](NCC(F)(F)C(F)(F)F)CC3)C2=O)C(=O)N1` (some centres unmarked) [Compound 644] stands greater than 1000 nM; under `O=C1CCC(N2Cc3c(cccc3N(CCC3CC3)[C@H]3CC[C@H](NCCC4(C(F)(F)F)CC4)CC3)C2=O)C(=O)N1` (some centres unmarked) [Compound 645, 3-{4-[(2-cyclopropylethyl)[(1r,4r)-4-({2-[1-(trifluoromethyl)cyclopropyl]ethyl}amino)cyclohexyl]amino]-1-oxo-3H-isoindol-2-yl}piperidine-2,6-dione trifluoroacetic acid], less than 100 nM.
The same measure, in the same setting: the same measure for `O=C1CCC(N2Cc3c(cccc3N(CCC3CC3)[C@H]3CC[C@H](NCCOC(F)(F)F)CC3)C2=O)C(=O)N1` (some centres unmarked) [Compound 647]: less than 100 nM.
For the compound `CCCN(c1cccc2c1CN(C1CCC(=O)NC1=O)C2=O)[C@H]1CC[C@H](NCCC(F)(F)F)CC1` (some centres unmarked) [Compound 648, 3-(1-oxo-4-{propyl[(1r,4r)-4-[(3,3,3-trifluoropropyl)amino]cyclohexyl]amino}-3H-isoindol-2-yl)piperidine-2,6-dione trifluoroacetic acid], the IC50 is less than 100 nM.
Turning to `O=C1CCC(N2Cc3c(cccc3N(CC3CCC3)[C@H]3CC[C@H](NCCC(F)(F)F)CC3)C2=O)C(=O)N1` (some centres unmarked) [Compound 649, 3-{4-[(cyclobutylmethyl)[(1r,4r)-4-[(3,3,3-trifluoropropyl)amino]cyclohexyl]amino]-1-oxo-3H-isoindol-2-yl}piperidine-2,6-dione trifluoroacetic acid], the IC50 lay within 100 to 1000 nM.
On the same count and under the same terms, the same measure for `O=C1CCC(N2Cc3c(cccc3N(CC3CC3)[C@H]3CC[C@H](NCC4(C(F)(F)F)CC4)CC3)C2=O)C(=O)N1` (some centres unmarked) [Compound 653, 3-(4-((cyclopropylmethyl)((1r,4r)-4-(((1-(trifluoromethyl)cyclopropyl)methyl)amino)cyclohexyl)amino)-1-oxoisoindolin-2-yl)piperidine-2,6-dione formate]: 100 to 1000 nM; for `O=C1CCC(N2Cc3c(cccc3N(CC3CCC3)[C@H]3CC[C@H](NCC4(C(F)(F)F)CC4)CC3)C2=O)C(=O)N1` (some centres unmarked) [Compound 654, 3-(4-((cyclobutylmethyl)((1r,4r)-4-(((1-(trifluoromethyl)cyclopropyl)methyl)amino)cyclohexyl)amino)-1-oxoisoindolin-2-yl)piperidine-2,6-dione]: 100 to 1000 nM; for `O=C1CCC(N2Cc3c(cccc3N(CCC3CC3)C3CCC4(CC3)COCCN4)C2=O)C(=O)N1` (centres unmarked) [Compound 679, 3-(4-((2-cyclopropylethyl)(4-oxa-1-azaspiro[5.5]undecan-9-yl)amino)-1-oxoisoindolin-2-yl)piperidine-2,6-dione]: 100 to 1000 nM.
The same measure, in the same setting: under `CN(CCC(F)F)[C@H]1CC[C@@H](N(CCC2CC2)c2cccc3c2CN(C2CCC(=O)NC2=O)C3=O)CC1` (some centres unmarked) [Compound 683A, 3-(4-((2-cyclopropylethyl)((1s,4s)-4-((3,3-difluoropropyl)(methyl)amino)cyclohexyl)amino)-1-oxoisoindolin-2-yl)piperidine-2,6-dione bis(2,2,2-trifluoroacetate)] stands 100 to 1000 nM; under `O=C1CCC(N2Cc3c(cccc3N(CCC3CC3)[C@H]3CC[C@H](CNCCC(F)(F)F)CC3)C2=O)C(=O)N1` (some centres unmarked) [Compound 708, 3-(4-((2-cyclopropylethyl)((1r,4r)-4-(((3,3,3-trifluoropropyl)amino)methyl)cyclohexyl)amino)-1-oxoisoindolin-2-yl)piperidine-2,6-dione], 100 to 1000 nM; under `O=C1CCC(N2Cc3c(cccc3N(CCC3CC3)[C@H]3CC[C@@H](CNCCC(F)(F)F)CC3)C2=O)C(=O)N1` (some centres unmarked) [Compound 708A, 3-(4-((2-cyclopropylethyl)((1s,4s)-4-(((3,3,3-trifluoropropyl)amino)methyl)cyclohexyl)amino)-1-oxoisoindolin-2-yl)piperidine-2,6-dione], less than 100 nM.
As for `O=C1CCC(N2Cc3c(cccc3N(CCC3CC3)[C@H]3CC[C@H](N4CCC5(C4)CC5(F)F)CC3)C2=O)C(=O)N1` (some centres unmarked) [Compound 711, 3-(4-((2-cyclopropylethyl)((1r,4r)-4-(1,1-difluoro-5-azaspiro[2.4]heptan-5-yl)cyclohexyl)amino)-1-oxoisoindolin-2-yl)piperidine-2,6-dione 2,2,2-trifluoroacetate], the IC50 fell in the range of 100 to 1000 nM.
On the same count and under the same terms, under `O=C1CCC(N2Cc3c(cccc3N(CCC3CC3)[C@H]3CC[C@@H](N4CCC5(C4)CC5(F)F)CC3)C2=O)C(=O)N1` (some centres unmarked) [Compound 711A, 3-(4-((2-cyclopropylethyl)((1s,4s)-4-(1,1-difluoro-5-azaspiro[2.4]heptan-5-yl)cyclohexyl)amino)-1-oxoisoindolin-2-yl)piperidine-2,6-dione 2,2,2-trifluoroacetate] stands greater than 1000 nM.

The values are drawn from patent US20250188069A1, “COMPOUNDS AND METHODS FOR DEGRADING CASEIN KINASE 1 ALPHA” (PIN THERAPEUTICS, INC., priority 2022, published 2025).
